ChEMBL document CHEMBL3232945 (Eur J Med Chem, 2014)

Key:
[1] = system: Rattus norvegicus; assay: Toxicity in […] normotensive Wistar rat assessed as mean arterial pressure at 40 mg/kg, ip measured immediately at 0 min (reference value: 94.21 +/- 2.065 mmHg); type: organism-based, Artery; parameters: dose 40 mg/kg, route intraperitoneal; details: in vivo, 0 h
[2] = system: Rattus norvegicus; assay: Toxicity in anesthetized-normotensive Wistar rat assessed as heart rate at 40 mg/kg, ip after 15 mins (reference value: 313.93 +/- 9.912 bpm); type: organism-based; parameters: dose 40 mg/kg, route intraperitoneal; details: in vivo, 0.25 h
[3] = system: Rattus norvegicus; assay: Toxicity in anaesthetized-Wistar rat assessed as QRS ECG interval at 40 mg/kg, ip after 15 mins (reference value: 18.9 +/- 1.563 ms); type: organism-based; parameters: dose 40 mg/kg, route intraperitoneal; details: in vivo, 0.25 h
[4] = system: Rattus norvegicus; assay: Antiarrhythmic activity in barium chloride-induced Wistar rat assessed as increase in mortality time at 40 mg/kg, ip administered 60 mins before barium chloride challenge (reference value: 682.8 +/- 9.656 secs); type: functional, Heart; details: route intraperitoneal
[5] = system: Rattus norvegicus; assay: Toxicity in anaesthetized-Wistar rat assessed as Q-T ECG interval at 40 mg/kg, ip after 45 mins (reference value: 78.8 +/- 0.927 ms); type: organism-based; parameters: dose 40 mg/kg, route intraperitoneal; details: in vivo, 0.75 h
[6] = system: Rattus norvegicus; assay: Toxicity in anaesthetized-Wistar rat assessed as QRS ECG interval at 40 mg/kg, ip after 30 mins (reference value: 19.9 +/- 1.393 ms); type: organism-based; parameters: dose 40 mg/kg, route intraperitoneal; details: in vivo, 0.5 h
[7] = system: Rattus norvegicus; assay: Toxicity in […] normotensive Wistar rat assessed as mean arterial pressure at 40 mg/kg, ip after 45 mins (reference value: 94.83 +/- 0.943 mmHg); type: organism-based, Artery; parameters: dose 40 mg/kg, route intraperitoneal; details: in vivo, 0.75 h
[8] = system: Rattus norvegicus; assay: Toxicity in anaesthetized-Wistar rat assessed as P-Q ECG interval at 40 mg/kg, ip after 60 mins (reference value: […] +/- 0.924 ms); type: organism-based; parameters: dose 40 mg/kg, route intraperitoneal; details: in vivo, 1 h
[9] = system: Rattus norvegicus; assay: Toxicity in […] normotensive Wistar rat assessed as mean arterial pressure at 40 mg/kg, ip after 60 mins (reference value: 95.07 +/- 1.973 mmHg); type: organism-based, Artery; parameters: dose 40 mg/kg, route intraperitoneal; details: in vivo, 1 h
[10] = system: Rattus norvegicus; assay: Toxicity in anaesthetized-Wistar rat assessed as QRS ECG interval at 40 mg/kg, ip after 45 mins (reference value: 20.2 +/- 1.348 ms); type: organism-based; parameters: dose 40 mg/kg, route intraperitoneal; details: in vivo, 0.75 h
[11] = system: Rattus norvegicus; assay: Toxicity in anesthetized-normotensive Wistar rat assessed as heart rate at 40 mg/kg, ip measured immediately at 0 min (reference value: 316.62 +/- 9.643 bpm); type: organism-based; parameters: dose 40 mg/kg, route intraperitoneal; details: in vivo, 0 h
[12] = system: Rattus norvegicus; assay: Toxicity in […] normotensive Wistar rat assessed as mean arterial pressure at 40 mg/kg, ip after 15 mins (reference value: 93.81 +/- 1.543 mmHg); type: organism-based, Artery; parameters: dose 40 mg/kg, route intraperitoneal; details: in vivo, 0.25 h
[13] = system: Rattus norvegicus; assay: Toxicity in anaesthetized-Wistar rat assessed as Q-T ECG interval at 40 mg/kg, ip measured immediately at 0 min (reference value: 78.8 +/- 1.030 ms); type: organism-based; parameters: dose 40 mg/kg, route intraperitoneal; details: in vivo, 0 h
[14] = system: Rattus norvegicus; assay: Antiarrhythmic activity in barium chloride-induced Wistar rat assessed as increase in appearance time of arrhythmia at 40 mg/kg, ip administered 60 mins before barium chloride challenge (reference value: 129.4 +/- 4.373 sec); type: functional, Heart; details: route intraperitoneal
[15] = system: Rattus norvegicus; assay: Antihypertensive activity in Wistar rat assessed as mean arterial pressure at 40 mg/kg, ip after 60 mins (reference value: 195.11 +/- 0.531 mmHg); type: functional, Artery; details: route intraperitoneal
[16] = system: Rattus norvegicus; assay: Toxicity in anaesthetized-Wistar rat assessed as P-Q ECG interval at 40 mg/kg, ip after 30 mins (reference value: […] +/- 0.927 ms); type: organism-based; parameters: dose 40 mg/kg, route intraperitoneal; details: in vivo, 0.5 h
[17] = system: Rattus norvegicus; assay: Antihypertensive activity in Wistar rat assessed as mean arterial pressure at 40 mg/kg, ip measured immediately at 0 min (reference value: 194.08 +/- 1.962 mmHg); type: functional, Artery; details: route intraperitoneal
[18] = system: Rattus norvegicus; assay: Toxicity in anaesthetized-Wistar rat assessed as Q-T ECG interval at 40 mg/kg, ip after 60 mins (reference value: 79.7 +/- 0.965 ms); type: organism-based; parameters: dose 40 mg/kg, route intraperitoneal; details: in vivo, 1 h
[19] = system: Rattus norvegicus; assay: Antihypertensive activity in Wistar rat assessed as mean arterial pressure at 40 mg/kg, ip after 30 mins (reference value: 194.72 +/- 1.002 mmHg); type: functional, Artery; details: route intraperitoneal
[20] = system: Rattus norvegicus; assay: Antihypertensive activity in Wistar rat assessed as mean arterial pressure at 40 mg/kg, ip after 15 mins (reference value: 195.68 +/- 1.623 mmHg); type: functional, Artery; details: route intraperitoneal
[21] = system: Rattus norvegicus; assay: Toxicity in anesthetized-normotensive Wistar rat assessed as heart rate at 40 mg/kg, ip after 45 mins (reference value: 316.82 +/- 8.452 bpm); type: organism-based; parameters: dose 40 mg/kg, route intraperitoneal; details: in vivo, 0.75 h
[22] = system: Rattus norvegicus; assay: Toxicity in anaesthetized-Wistar rat assessed as P-Q ECG interval at 40 mg/kg, ip after 45 mins (reference value: 52.5 +/- 0.780 ms); type: organism-based; parameters: dose 40 mg/kg, route intraperitoneal; details: in vivo, 0.75 h
[23] = system: Rattus norvegicus; assay: Toxicity in anaesthetized-Wistar rat assessed as Q-T ECG interval at 40 mg/kg, ip after 15 mins (reference value: 79.4 +/- 1.270 ms); type: organism-based; parameters: dose 40 mg/kg, route intraperitoneal; details: in vivo, 0.25 h
[24] = system: Rattus norvegicus; assay: Toxicity in anesthetized-normotensive Wistar rat assessed as heart rate at 40 mg/kg, ip after 30 mins (reference value: 317.68 +/- 7.631 bpm); type: organism-based; parameters: dose 40 mg/kg, route intraperitoneal; details: in vivo, 0.5 h
[25] = system: Rattus norvegicus; assay: Toxicity in anaesthetized-Wistar rat assessed as P-Q ECG interval at 40 mg/kg, ip after 15 mins (reference value: 52.2 +/- 1.158 ms); type: organism-based; parameters: dose 40 mg/kg, route intraperitoneal; details: in vivo, 0.25 h
[26] = system: Rattus norvegicus; assay: Toxicity in […] normotensive Wistar rat assessed as mean arterial pressure at 40 mg/kg, ip after 30 mins (reference value: 94.68 +/- 1.213 mmHg); type: organism-based, Artery; parameters: dose 40 mg/kg, route intraperitoneal; details: in vivo, 0.5 h
[27] = system: Rattus norvegicus; assay: Antihypertensive activity in Wistar rat assessed as mean arterial pressure at 40 mg/kg, ip after 45 mins (reference value: 193.96 +/- 0.865 mmHg); type: functional, Artery; details: route intraperitoneal
[28] = system: Rattus norvegicus; assay: Toxicity in anaesthetized-Wistar rat assessed as QRS ECG interval at 40 mg/kg, ip after 60 mins (reference value: 19.3 +/- 0.873 ms); type: organism-based; parameters: dose 40 mg/kg, route intraperitoneal; details: in vivo, 1 h
[29] = system: Rattus norvegicus; assay: Toxicity in anaesthetized-Wistar rat assessed as P-Q ECG interval at 40 mg/kg, ip measured immediately at 0 min (reference value: 52.4 +/- 0.927 ms); type: organism-based; parameters: dose 40 mg/kg, route intraperitoneal; details: in vivo, 0 h
[30] = system: Rattus norvegicus; assay: Toxicity in anaesthetized-Wistar rat assessed as QRS ECG interval at 40 mg/kg, ip measured immediately at 0 min (reference value: 19.6 +/- 1.142 ms); type: organism-based; parameters: dose 40 mg/kg, route intraperitoneal; details: in vivo, 0 h
[31] = system: Rattus norvegicus; assay: Toxicity in anaesthetized-Wistar rat assessed as Q-T ECG interval at 40 mg/kg, ip after 30 mins (reference value: 78.3 +/- 0.860 ms); type: organism-based; parameters: dose 40 mg/kg, route intraperitoneal; details: in vivo, 0.5 h
[32] = system: Rattus norvegicus; assay: Toxicity in anesthetized-normotensive Wistar rat assessed as heart rate at 40 mg/kg, ip after 60 mins (reference value: 314.96 +/- 9.442 bpm); type: organism-based; parameters: dose 40 mg/kg, route intraperitoneal; details: in vivo, 1 h

Row | SMILES | Activity [1] [mmHg] | Activity [2] [bpm] | Activity [3] [min] | Time [4] [s] | Activity [5] [min] | Activity [6] [ms] | Activity [7] [mmHg] | Activity [8] [min] | Activity [9] [mmHg] | Activity [10] [min] | Activity [11] [bpm] | Activity [12] [mmHg] | Activity [13] [min] | Time [14] [s] | Activity [15] [mmHg] | Activity [16] [min] | Activity [17] [mmHg] | Activity [18] [ms] | Activity [19] [mmHg] | Activity [20] [mmHg] | further results
1 | O=C1/C(=C\c2ccccc2)S/C(=N\c2ccccc2)N1CC(O)CN(c1ccccc1)c1ccccc1 (stereo unspecified) | 94.09 | 305.46 | 21.2 | 768.5 | 0.00119 | 22.1 | 85.43 | 52.6 | 90.27 | 21.6 | 316.34 | 87.32 | 70.2 | 234.8 | 169.93 | 54.1 | 194.26 | 70.7 | 169.59 | 183.55 | Activity [21]: 289.26 bpm; Activity [22]: 53.4 min; Activity [23]: 71.5 min; Activity [24]: 292.41 bpm; Activity [25]: 51.2 min; Activity [26]: 85.08 mmHg; Activity [27]: 159.27 mmHg; Activity [28]: 20.4 min; Activity [29]: 50.6 ms; Activity [30]: 20.3 min; Activity [31]: 72.3 min; Activity [32]: 302.92 bpm
2 | O=C1/C(=C\c2ccccc2)S/C(=N\c2ccccc2)N1CC(O)CN1CCC(C(O)(c2ccccc2)c2ccccc2)CC1 (stereo unspecified) | 91.39 | 310.46 | 23.1 | 1162.1 | 74.9 | 23.8 | 64.53 | 50.2 | 71.94 | 24.2 | 332.05 | 76.73 | 72.9 | 323.4 | 162.87 | 51.3 | 193.69 | 72.7 | 139.21 | 176.43 | Activity [21]: 295.73 bpm; Activity [22]: 52.4 min; Activity [23]: 73.4 min; Activity [24]: 279.31 bpm; Activity [25]: 50.1 min; Activity [26]: 70.26 mmHg; Activity [27]: 135.96 mmHg; Activity [28]: 22.5 min; Activity [29]: 49.8 ms; Activity [30]: 22.4 min; Activity [31]: 74.3 min; Activity [32]: 302.12 bpm
3 | CCN(CC)CC(O)CN1C(=O)/C(=C\c2ccccc2)S/C1=N\c1ccccc1 (stereo unspecified) | 91.39 | 312.24 | 19.4 | 1142.4 | 84.8 | 21.2 | 63.51 | 55.6 | 73.31 | 20.6 | 319.65 | 79.23 | 80.4 | 343.1 | 159.87 | 53.8 | 194.43 | 86.4 | 161.27 | 172.98 | Activity [21]: 309.56 bpm; Activity [22]: 54.2 min; Activity [23]: 81.4 min; Activity [24]: 274.66 bpm; Activity [25]: 52.2 min; Activity [26]: 68.93 mmHg; Activity [27]: 119.43 mmHg; Activity [28]: 21.4 min; Activity [29]: 52 ms; Activity [30]: 18.4 min; Activity [31]: 83.2 min; Activity [32]: 312.28 bpm
